# Reference: patent US8507472B2 (priority 2010, dated 2013)
# Experiments:
# Fusarium graminearum [1] = assay: microbe, parasite or virus in culture; format: cell-based; conditions: 50 μM
# [2] = tested on: Fusarium nivale (var. majus); assay: Fusarium nivale (var. majus) test (wheat)/protective; format: in vivo; conditions: 1000 ppm active compound, protective, evaluation 5 days after inoculation
# Experimental: (§1) Solvent: 49 parts by weight of N,N-dimethylacetamide
# (§2) Emulsifier: 1 part by weight of alkylaryl polyglycol ether
# (§3) To produce a suitable preparation of active compound, 1 part by weight of active compound is mixed with the stated amounts of solvent and emulsifier, and the concentrate is diluted with water to the desired concentration.
# (§4) To test for protective activity, young plants are sprayed with the active compound preparation at the stated application rate.
# After the spray coating has dried on, the plants are sprayed with spores of a spore suspension of Fusarium nivale (var. majus).
# The plants are placed in a greenhouse chamber under a translucent incubation hood at 10° C. and 100% relative atmospheric humidity.
# Evaluation is carried out 5 days after the inoculation. 0% means an efficacy which corresponds to that of the control, whereas an efficacy of 100% means that no infection is observed.
# DON/AcDON production = assay: microbe, parasite or virus in culture; format: cell-based, Fusarium graminearum; conditions: 7 days at 28° C.
# Septoria tritici = Septoria tritici test (wheat)/protective; format: in vivo; conditions: in vivo
# Experimental: as §1, §2
# To produce a suitable preparation of active compound, 1 part by weight of active compound is mixed with the stated amount of solvent and emulsifier, and the concentrate is diluted with water to the desired concentration.
# To test for protective activity, young plants are sprayed with the active compound preparation at the stated application rate. After the spray coating has dried on, the plants are sprayed with a spore suspension of Septoria tritici. The plants remain in an incubation cabin at 20° C. and 100% relative atmospheric humidity for 48 hours. The plants are then placed under a translucent hood at 15° C. and 100% relative atmospheric humidity for a further 60 hours.
# The plants are placed in a greenhouse at a temperature of about 15° C. and a relative atmospheric humidity of 80%.
# Evaluation is carried out 21 days after the inoculation. 0% means an efficacy which corresponds to that of the control, whereas an efficacy of 100% means that no infection is observed.
# Sphaerotheca fuliginea = assay: Sphaerotheca test (cucumber)/protective; format: in vivo; conditions: in vivo
# Procedure, shortened: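 Infection was rated 7 days after spore inoculation as % efficacy (0% = control level, 100% = no disease). Inoculation followed 1 day after preventive spray of young cucumbers with compound formulated in N,N-dimethylformamide plus emulsifier and diluted with water; plants were held at 23 °C and 70% relative humidity.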
# Pyrenophora teres = Pyrenophora teres test (barley)/protective; format: in vivo; conditions: in vivo
# Procedure, shortened: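 Efficacy, read 7-9 days after spore inoculation, runs from 0% (equal to untreated control) to 100% (no infection). Barley sprayed with water-diluted DMF/emulsifier formulation was inoculated one day later, incubated 48 h at 22° C. and 100% rel. humidity, then held at 20° C. and 80% humidity.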
# Phytophthora infestans = format: in vivo; conditions: in vivo
# Alternaria solani = assay: Alternaria test (tomato)/protective; format: in vivo; conditions: in vivo
# Procedure, shortened: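 Treatment was protective: spray application at the stated rate came one day before spore inoculation. Incubation was 24 h at 22 °C and 100% humidity, then 20 °C and 96% humidity. Infection was rated at day 7 as % efficacy against the control, with 100% meaning no disease.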
# Leptosphaeria nodorum = Leptosphaeria nodorum test (wheat)/protective; format: in vivo; conditions: in vivo
# Experimental: Solvent: 49 parts by weight of N,N-dimethylformamide
# as §2
# To produce a suitable preparation of active compounds, 1 part by weight of active compound is mixed with the stated amounts of solvent and emulsifier, and the concentrate is diluted with water to the desired concentration.
# To test for protective activity, young wheat plants are sprayed with the active compound preparation at the stated application rate. 1 day after the treatment, the plants are inoculated with an aqueous spore suspension of Leptosphaeria nodorum and then remain at 100% rel. atmospheric humidity and 22° C. for 48 h. The plants are then placed in a greenhouse at 90% rel. atmospheric humidity and a temperature of 22° C.
# Evaluation is carried out 7-9 days after the inoculation. 0% means an efficacy which corresponds to that of the control, whereas an efficacy of 100% means that no infection is observed.
# Uromyces appendiculatus = assay: Uromyces test (bean)/protective; format: in vivo; conditions: in vivo
# Experimental: (§5) Solvents: 24.5 parts by weight of acetone
# (§6) • 24.5 parts by weight of dimethylacetamide Emulsifier: 1 part by weight of alkylaryl polyglycol ether
# (§7) To produce a suitable preparation of active compound, 1 part by weight of active compound is mixed with the stated amounts of solvents and emulsifier, and the concentrate is diluted with water to the desired concentration.
# (§8) To test for protective activity, young plants are sprayed with the active compound preparation at the stated application rate. After the spray coating has dried on, the plants are inoculated with an aqueous spore suspension of the bean rust pathogen Uromyces appendiculatus and then remain in an incubation cabin at about 20° C. and 100% relative atmospheric humidity for 1 day.
# (§9) The plants are then placed in a greenhouse at about 21° C. and a relative atmospheric humidity of about 90%.
# (§10) Evaluation is carried out 10 days after the inoculation. 0% means an efficacy which corresponds to that of the control, whereas an efficacy of 100% means that no infection is observed.
# Botrytis cinerea = assay: Botrytis test (bean)/protective; format: in vivo; conditions: 100 ppm active compound, protective, evaluation 2 days after inoculation
# Experimental: as §5, §6, §7
# To test for protective activity, young plants are sprayed with the active compound preparation at the stated application rate. After the spray coating has dried on, 2 small pieces of agar colonized by Botrytis cinerea are placed onto each leaf. The inoculated plants are placed in a dark chamber at about 20° C. and 100% relative atmospheric humidity.
# 2 days after the inoculation, the size of the infected areas on the leaves is evaluated. 0% means an efficacy which corresponds to that of the control, whereas an efficacy of 100% means that no infection is observed.
# Venturia inaequalis = assay: Venturia test (apple)/protective; format: in vivo; conditions: 100 ppm active compound, protective, evaluation 10 days after inoculation
# Experimental: Solvents: 24.5 parts by weight of acetone • 24.5 parts by weight of dimethylacetamide Emulsifier: 1 part by weight of alkylaryl polyglycol ether
# as §7
# as §8, with “conidia” for “spore”, “apple scab” for “bean rust”, “Venturia inaequalis” for “Uromyces appendiculatus”
# as §9, §10
# Fusarium graminearum [3] = format: in vivo; conditions: in vivo
# Puccinia triticina = Puccinia triticina test (wheat)/protective; format: in vivo; conditions: in vivo
# Experimental: Solvent: 49 parts by weight of […]
# as §2, §3, §4
# After the spray coating has dried on, the plants are sprayed with spores of a spore suspension of Puccinia triticina. The plants remain in an incubation cabin at 20° C. and 100% relative atmospheric humidity for 48 hours.
# The plants are placed in greenhouse at a temperature of about 20° C. and a relative atmospheric humidity of about 80%.
# Evaluation is carried out 8 days after the inoculation. 0% means an efficacy which corresponds to that of the control, whereas an efficacy of 100% means that no infection is observed.
SMILES,% inhibition of the fungal growth of Fusarium graminearum at 50 μM (Fusarium graminearum [1]),efficacy in % [2],% inhibition of DON/AcDON at 50 μM (DON/AcDON production),efficacy in % (Septoria tritici),efficacy in % (Sphaerotheca fuliginea),efficacy in % (Pyrenophora teres),efficacy in % (Phytophthora infestans),efficacy in % (Alternaria solani),efficacy in % (Leptosphaeria nodorum),efficacy in % (Uromyces appendiculatus),efficacy in % (Botrytis cinerea),efficacy in % (Venturia inaequalis),efficacy in % (Fusarium graminearum [3]),efficacy in % (Puccinia triticina)
O=C(Nc1cc(-c2c(-c3ccc(F)cc3)nn3c2CCCC3)ccn1)c1ccsc1 [Example 47],76%,80%,100%,100%,96%,90%,80%,90%,–,–,–,–,–,–
O=C(Nc1cc(-c2c(-c3ccccc3)nn3c2CCCC3)ccn1)c1ccccc1 [Example 33],100%,–,99%,–,95%,78%,70%,89%,70%,95%,98%,95%,–,–
CC(C)(O)C(=O)Nc1cc(-c2c(-c3ccc(F)cc3)nn3c2CCCC3)ccn1 [Example 55],–,100%,–,90%,95%,95%,–,80%,90%,–,–,–,83%,100%
O=C(Nc1cc(-c2c(-c3cccs3)nn3c2CCCC3)ccn1)C1CC1 [Example 89],–,–,–,–,100%,95%,90%,90%,80%,95%,100%,94%,–,–
CC(C)CC(=O)Nc1cc(-c2c(-c3ccsc3)nn3c2CCCC3)ccn1 [Example 64],100%,–,100%,–,86%,100%,80%,100%,94%,78%,100%,99%,–,–
O=CNc1cc(-c2c(-c3ccccc3)nn3c2CCCC3)ccn1 [Example 37],93%,86%,99%,–,–,100%,70%,95%,90%,–,–,–,–,78%
C[C@H](O)C(=O)Nc1cc(-c2c(-c3ccccc3)nn3c2CCCC3)ccn1 [Example 25],92%,100%,99%,86%,94%,100%,80%,100%,95%,94%,90%,94%,–,88%
Fc1ccc(-c2nn3c(c2-c2ccncc2)CCCCC3)cc1 [Example 43],100%,80%,98%,100%,–,95%,70%,94%,90%,90%,99%,98%,–,100%
CCC(=O)Nc1cc(-c2c(-c3ccsc3)nn3c2CCCC3)ccn1 [Example 59],100%,100%,100%,–,98%,90%,–,70%,89%,–,100%,97%,94%,100%
COC(=O)Nc1cc(-c2c(-c3ccccc3)nn3c2CCCC3)ccn1 [Example 27],56%,86%,99%,–,–,90%,80%,100%,–,94%,92%,89%,94%,75%
O=C(Nc1cc(-c2c(-c3ccccc3)nn3c2CCCC3)ccn1)c1ccsc1 [Example 51],41%,–,100%,–,–,90%,–,95%,–,86%,99%,74%,–,–
CN(C)C=Nc1cc(-c2c(-c3ccccc3)nn3c2CCCC3)ccn1 [Example 38],89%,86%,99%,–,–,95%,70%,95%,–,–,–,–,–,–
CC(C)(O)C(=O)Nc1cc(-c2c(-c3ccccc3)nn3c2CCCC3)ccn1 [Example 50],57%,83%,92%,90%,94%,95%,–,95%,–,–,–,88%,83%,86%
